pIC50: −log10 of the molar value. Where two headings read alike, the source gives them in different places.
Key:
[1] = system: methicillin-resistant Staphylococcus aureus (MRSA) clinical isolates; experiment: Broth microdilution MIC, clinical MRSA isolates; assay type: cell-based; settings: 24 h, 0.08–40 μM
Procedure: (§1) We used a set of clinical isolates of S. aureus and E. faecium that were collected at the Medical Center of the University of Debrecen (Hungary) between 1 January 2018. and 31 December 2020. The clinical isolates were identified using a Microflex MALDI-TOF mass spectrometer (Bruker, Billerica, MA, USA). The antibiotic susceptibility of the isolates was tested following the European Committee on Antimicrobial Susceptibility Testing (EUCAST) guidelines, which were valid at the time of collection.
(§2) Microdilution experiments were performed according to the standards of EUCAST [85]. The bacterial isolates to be tested were grown on Mueller–Hinton agar plates. The inoculum density of bacteria was set at 5.0 × 10^5 CFU/mL in microtiter plates in a final volume of 200 μL Mueller–Hinton broth. The tested concentration range was 0.08–40 μM (10 concentrations, twofold serial dilutions), and a drug-free growth control and an inoculum-free negative control were included. The inoculated plates were incubated for 24 h at 37 °C, then visually assessed. Minimum inhibitory concentration (MIC) was defined as the lowest concentration with a 50%≤ inhibitory effect compared to the growth control. All experiments were performed at least twice in duplicate.

[2] = system: Staphylococcus aureus (ATCC29213); experiment: Broth microdilution MIC, reference strain; assay type: cell-based; settings: 0.08–40 μM, read-out: MIC S. aureus ATCC 29213
Procedure: (§3) The reference strains of Staphylococcus aureus (ATCC29213) and Enterococcus faecalis (ATCC29212) were purchased from the ATCC (Manassas, VA, USA).
as §2

[3] = system: Enterococcus faecalis (ATCC29212); experiment: Broth microdilution MIC, reference strain; assay type: cell-based; settings: 24 h, tested range 0.08–40 μM, read-out: MIC E. faecalis ATCC 29,212
Procedure: as §3, §2

[4] = system: A2780 cells; experiment: SRB binding assay, cytostasis, 48 h treatment; assay type: cell-based; settings: for A2780 SRB Max Inhibition: up to 100 μM, ND = not detectable
Procedure: (§4) The complexes described above are intended to replace registered platinum complexes. Platinum complexes constitute the core of the chemotherapy regimen used in ovarian cancer; therefore, we used a cellular model of ovarian cancer, A2780, and primary human dermal fibroblasts as models of non-transformed cells (controls). For the characterization of the complexes, we used an MTT assay after 4 h of treatment for the detection of early toxicity and an SRB assay 48 h after treatment for the detection of cytostasis.
(§5) An SRB assay measures protein content of cells in correlation with the cell number in an assay well and can therefore be used to assess cell proliferation or long-term cytostasis. Cells were seeded in 96-well plates the day before the assay. Cells were treated with the compounds for 48 h. Then medium was removed, and cells were fixed with 10% trichloroacetic acid. Fixed cells were washed in distilled water 3 times, followed by staining with SRB (0.4 m/V% dissolved in 1% acetic acid) for 10 min. Stained cells were washed in 1% acetic acid 5 times; acetic acid was removed, and cells were left to dry. Protein-bound SRB was released by adding 100 μL 10 mM Tris base. Plates were measured in a plate photometer (Thermo Scientific Multiscan GO spectrophotometer, Waltham, MA, USA) at 540 nm. On each plate, wells were designed to contain vehicle-treated cells. In calculations, the readings for these wells were considered to be 1, and all readings were expressed relative to these values.
(§6) Statistical analysis was performed using version 8.0.1 of GraphPad Prism. Values were tested for normal distribution using the Shapiro–Wilk normality test. Nonlinear regression was performed using the built-in “[Inhibitor] vs. response—Variable slope (four parameters), least square fit” utility of GraphPad, which yielded IC50 and Hill slope values if the sigmoid curves reached a plateau of inhibition and there was no decrease between two subsequent data points or when inhibition was over 90%. In other cases, the percentage of inhibition was taken for the maximum concentration (100 μM).

[5] = system: primary human dermal fibroblasts; experiment: SRB binding assay, cytostasis, 48 h treatment; assay type: cell-based; settings: for Fibroblast SRB Max Inhibition: up to 100 μM, ND = not detectable
Procedure: as §4, §5, §6

[6] = system: A2780 cells; experiment: MTT reduction assay, early toxicity, 4 h treatment; assay type: cell-based
Procedure: as §4
(§7) An MTT reduction assay was measures the activity of mitochondrial complex I and can be used to detect toxicity. The assay was performed in a manner similar to that described in [84]. Briefly, cells were plated in 96-well plates the day before the assay. Cells were treated with the compounds for 4 h; then, MTT was added to a 0.5 mg/mL final concentration, and cells were incubated at 37 °C in a cell incubator for 40–60 min as a function of the cell line being assessed. Culture medium was removed, the reduced MTT dye was dissolved in dimethyl-sulfoxide, and plates were measured in a plate photometer (Thermo Scientific Multiscan GO spectrophotometer, Waltham, MA, USA) at 540 nm. On each plate, wells were designed to contain vehicle-treated cells. In calculations, the readings for these wells were considered to 1, and all readings were expressed relative to these values.
as §6

[7] = system: primary human dermal fibroblasts; experiment: MTT reduction assay, early toxicity, 4 h treatment; assay type: cell-based; settings: up to 100 μM
Procedure: as §4, §7, §6

[8] = Distribution coefficient (logD), n-octanol-PBS; assay type: physicochemical; settings: n-octanol-PBS (pH = 7.4) system
Procedure: The logD values of the newly synthesized complexes were determined according to a procedure described in our previous publications. page 64: Ir-7b +1.17 Rh-7b +1.41 Ru-7c +1.31 Os-7c +1.59 Ir-7c +1.40 Rh-7c +1.13 Ru-7d +1.26 Os-7d +1.42 Ir-7d +1.30 Rh-7d +1.04 Ru-7e +2.22 Os-7e +2.21 Ir-7e +1.39 Rh-7e +1.66 *logD was determined in an n-octanol-PBS (pH = 7.4) system 64 (14 pictures or pasted objects on this page, not shown here)

[9] = system: vancomycin-resistant Enterococcus (VRE) clinical isolates; experiment: Broth microdilution MIC, clinical VRE isolates; assay type: cell-based, E. faecium; settings: 24 h, 0.08–40 μM
Procedure: as §1, §2

[10] = clinical isolate 20,426 MRSA, read-out: MIC 20,426 MRSA
[11] = clinical isolate 24,035 MRSA, read-out: MIC 24,035 MRSA
[12] = clinical isolate 24,268 MRSA, read-out: MIC 24,268 MRSA
[13] = clinical isolate 24,272 MRSA, read-out: MIC 24,272 MRSA
[14] = clinical isolate 24,328 MRSA, read-out: MIC 24,328 MRSA
[15] = clinical isolate 24,408 MRSA, read-out: MIC 24,408 MRSA
[16] = inhibition at maximum concentration (100 μM) where no plateau, ND = not detectable
[17] = clinical isolate 25,051 VRE, read-out: MIC 25,051 VRE
[18] = clinical isolate 25,498 VRE, read-out: MIC 25,498 VRE
[19] = clinical isolate 27,085 VRE, read-out: MIC 27,085 VRE

SMILES | MIC [1, 10] [µM] | MIC [1, 11] [µM] | MIC [1, 12] [µM] | MIC [1, 13] [µM] | MIC [1, 14] [µM] | MIC [1, 15] [µM] | MIC ([2]; 24 h) [µM] | MIC [3] [µM] | pIC50 [4] | A2780 SRB Max Inhibition [4] [%] | Fibroblast SRB Max Inhibition [5] [%] | A2780 MTT Max Inhibition [6, 16] [%] | Fibroblast MTT Max Inhibition [7] [%] | logD [8] | MIC [9, 17] [µM] | MIC [9, 18] [µM] | MIC [9, 19] [µM] | further results
Cc1c(C)c(C)[c-](C)c1C.F[P-](F)(F)(F)(F)F.N[C@@H]1[C@@H](OC(=O)c2ccccc2)[C@H](OC(=O)c2ccccc2)[C@@H](COC(=O)c2ccccc2)O[C@H]1c1ccccn1.[Cl][Rh+2] [Rh-7a] | >40 | >40 | >40 | >40 | >40 | >40 | >40 | >40 | 4.74 | >90 | 32.56 | 35.97 | 27.02 | 1.20 | >40 | >40 | >40 | 
Cc1c(C)c(C)[c-](C)c1C.F[P-](F)(F)(F)(F)F.N[C@@H]1[C@@H](OCc2ccccc2)[C@H](OCc2ccccc2)[C@@H](COCc2ccccc2)O[C@H]1c1ccccn1.[Cl][Ir+2] [Ir-3a] | 10 | 20 | 5 | 10 | 10 | 10 | 20 | 20 | 5.77 | >90 |  | 82.71 |  | 3.18 | 10 | 10 | 10 | pIC50 ([5]; read-out: Fibroblast SRB IC50): 4.85
Cc1ccc(C(C)C)cc1.F[P-](F)(F)(F)(F)F.NC1C(c2cccnn2)OC(COC(=O)c2ccccc2)C(OC(=O)c2ccccc2)C1OC(=O)c1ccccc1.[Cl][Os+] (mixture of isomers) [Os-7b] | 10 | 10 | 10 | 10 | 20 | 10 | 20 | 10 | 4.25 | >90 |  | 53.39 | 27.22 | 1.32 | 10 | 10 | 10 | 
N[C@@H]1[C@@H](OC(=O)c2ccccc2)[C@H](OC(=O)c2ccccc2)[C@@H](COC(=O)c2ccccc2)O[C@H]1c1ccccn1 [Complex 7a, 2-(2′-Amino-2′-deoxy-3′,4′,6′-tri-O-benzoyl-β-D-glucopyranosyl)pyridine] |  |  |  |  |  |  |  |  |  | 76.24 | 26.00 |  | 27.02 |  |  |  |  | MIC ([1]; Staphylococcus aureus, clinical isolate 20,426 MRSA, read-out: MIC 20,426 MRSA): > 40 µM; MIC ([1]; Staphylococcus aureus, clinical isolate 24,035 MRSA, read-out: MIC 24,035 MRSA): > 40 µM; MIC ([1]; Staphylococcus aureus, clinical isolate 24,268 MRSA, read-out: MIC 24,268 MRSA): > 40 µM; MIC ([1]; Staphylococcus aureus, clinical isolate 24,272 MRSA, read-out: MIC 24,272 MRSA): > 40 µM; MIC ([1]; Staphylococcus aureus, clinical isolate 24,328 MRSA, read-out: MIC 24,328 MRSA): > 40 µM; MIC ([1]; Staphylococcus aureus, clinical isolate 24,408 MRSA, read-out: MIC 24,408 MRSA): > 40 µM; MIC ([2]; Staphylococcus aureus, ATCC29213, 24 h): > 40 µM; MIC ([3]; Enterococcus faecalis): > 40 µM; inhibition at 100 µM ([6]; Homo sapiens, inhibition at maximum concentration (100 μM) where no plateau, ND = not detectable, read-out: A2780 MTT Max Inhibition): 18.6%; MIC ([9]; Enterococcus, clinical isolate 25,051 VRE, read-out: MIC 25,051 VRE): > 40 µM; MIC ([9]; Enterococcus, clinical isolate 25,498 VRE, read-out: MIC 25,498 VRE): > 40 µM; MIC ([9]; Enterococcus, clinical isolate 27,085 VRE, read-out: MIC 27,085 VRE): > 40 µM
Cc1c(C)c(C)[c-](C)c1C.F[P-](F)(F)(F)(F)F.NC1C(c2cccnn2)OC(COC(=O)c2ccccc2)C(OC(=O)c2ccccc2)C1OC(=O)c1ccccc1.[Cl][Rh+2] (mixture of isomers) [Rh-7b] | >40 | >40 | >40 | >40 | >40 | >40 | >40 | >40 | 4.50 | >90 |  | 62.85 | 11.39 | 1.41 | >40 | >40 | >40 | 
Cc1ccc(C(C)C)cc1.F[P-](F)(F)(F)(F)F.N[C@@H]1[C@@H](OCc2ccccc2)[C@H](OCc2ccccc2)[C@@H](COCc2ccccc2)O[C@H]1c1cnccn1.[Cl][Os+] [Os-3d] | 40 | 40 | 40 | 40 | 40 | 40 | 40 | >40 | 5.17 | >90 |  | 86.83 | 73.24 | 2.64 | 40 | 40 | 40 | pIC50 [6]: 4.49
